According to patent US20250197376A1, “PYRAZINE AMIDE DERIVATIVES” (Novartis AG, priority 2022, published 2025):

These molecules were tested on 3D7 P. falciparum strain (assay: P. falciparum 3D7 parasite proliferation assay (SYBR Green)). Conditions: Plasmodium falciparum, Erythrocyte; 3D7 P. falciparum infected human erythrocytes, 72 hours, SYBR Green fluorescence; read-out: Pf3D7 Activity.
Type: cell-based
Protocol: The following assay illustrates the invention without in any way limiting the scope of the invention. This parasite proliferation assay measures the increase in parasite DNA content using a DNA intercalating dye, SYBR Green®. 3D7 P. falciparum strain is grown in complete culturing media until parasitemia reaches 3% to 8% with O+ human erythrocytes. 20 μl of screening media is dispensed into 384 well assay plates. 50 nl of compounds of the invention (in DMSO), including antimalarial controls (mefloquine, pyrimethamine and artemisinin), are then transferred into the assay plates, as well as DMSO alone to serve as a negative control for inhibition. Then 30 μl of a suspension of a 3D7 P. falciparum infected erythrocytes in screening media is dispensed into the assay plates such that the final hematocrit is 2.5% with a final parasitemia of 0.3%. The plates are placed in a 37° C. incubator for 72 hours in a low oxygen environment containing 93% N2, 4% CO2, and 3% O2 gas mixture. 10 μl of lysis buffer (saponin, triton-X, EDTA) containing a 10× solution of SYBR Green […] in RPMI media is dispensed into the plates. The plates are lidded and kept at room temperature overnight for the lysis of the infected red blood cells. The fluorescence intensity is measured (excitation […], emission 530 nm) using the Envision™ system (Perkin Elmer). The percentage inhibition of 50%, EC50, is calculated for each compound.

| SMILES | EC50 [nM] |
| --- | --- |
| CC(C)(N)CNC(=O)c1cncc(-c2cc3cccc(F)c3[nH]2)n1 [Example 25, N-(2-amino-2-methylpropyl)-6-(7-fluoro-1H-indol-2-yl)pyrazine-2-carboxamide] | 10 to 100 |
| Cc1c(-c2cncc(C(=O)NCC(C)(C)N)n2)[nH]c2ccc(S(F)(F)(F)(F)F)cc12 [Example 3, N-(2-amino-2-methylpropyl)-6-(3-methyl-5-(pentafluoro-λ^6-sulfaneyl)-1H-indol-2-yl)pyrazine-2-carboxamide] | < 10 |
| CN(C)C(=O)c1cc2[nH]c(-c3cncc(C(=O)NCC(C)(C)N)n3)cc2s1 [Example 109, 5-(6-((2-amino-2-methylpropyl)carbamoyl)pyrazin-2-yl)-N,N-dimethyl-4H-thieno[3,2-b]pyrrole-2-carboxamide] | > 100 |
| N[C@H]1CC[C@H](NC(=O)c2cncc(-c3cc4cc(OC(F)(F)F)ccc4[nH]3)n2)CC1 [Example 67, N-((1r,4r)-4-aminocyclohexyl)-6-(5-(trifluoromethoxy)-1H-indol-2-yl)pyrazine-2-carboxamide] | > 100 |
| CC(C)c1c(-c2cncc(C(=O)NCC(C)(C)N)n2)[nH]c2ccc(OC(F)(F)F)cc12 [Example 16, N-(2-amino-2-methylpropyl)-6-(3-isopropyl-5-(trifluoromethoxy)-1H-indol-2-yl)pyrazine-2-carboxamide] | 10 to 100 |
| Cc1c(-c2cncc(C(=O)N[C@@H]3CCCC[C@H]3N)n2)[nH]c2ccccc12 (racemic) [Example 101, (rac)-N-((1r,2r)-2-aminocyclohexyl)-6-(3-methyl-1H-indol-2-yl)pyrazine-2-carboxamide] | > 100 |
| Cc1c(-c2cncc(C(=O)N(C)CC(C)(C)N)n2)[nH]c2ccc(OC(F)(F)F)cc12 [Example 62, N-(2-amino-2-methylpropyl)-N-methyl-6-(3-methyl-5-(trifluoromethoxy)-1H-indol-2-yl)pyrazine-2-carboxamide] | 10 to 100 |
| Cc1c(-c2cncc(C(=O)NCC3(N)CCC3)n2)[nH]c2ccccc12 [Example 84, N-((1-aminocyclobutyl)methyl)-6-(3-methyl-1H-indol-2-yl)pyrazine-2-carboxamide] | 10 to 100 |
| Cc1c(-c2cncc(C(=O)NCCN)n2)[nH]c2ccc(OC(F)(F)F)cc12 [Example 60, N-(2-aminoethyl)-6-(3-methyl-5-(trifluoromethoxy)-1H-indol-2-yl)pyrazine-2-carboxamide] | 10 to 100 |
| Cc1c(-c2cncc(C(=O)N[C@H]3CC[C@H](N)CC3)n2)[nH]c2ccccc12 [Example 97, N-((1r,4r)-4-aminocyclohexyl)-6-(3-methyl-1H-indol-2-yl)pyrazine-2-carboxamide] | > 100 |
| Cc1c(-c2cncc(C(=O)NCC(C)(C)N3CCOCC3)n2)[nH]c2ccccc12 [Example 96, 6-(3-Methyl-1H-indol-2-yl)-N-(2-methyl-2-morpholinopropyl)pyrazine-2-carboxamide] | > 100 |
| CC(C)(N)CNC(=O)c1cncc(-c2cc3cc(F)c(Cl)cc3[nH]2)n1 [Example 14, N-(2-amino-2-methylpropyl)-6-(6-chloro-5-fluoro-1H-indol-2-yl)pyrazine-2-carboxamide] | 10 to 100 |
| CC(C)(N)CNC(=O)c1cncc(-c2cc3cc(Cl)ncc3[nH]2)n1 [Example 39, N-(2-amino-2-methylpropyl)-6-(5-chloro-1H-pyrrolo[2,3-c]pyridin-2-yl)pyrazine-2-carboxamide] | > 100 |
| Cc1ccc2[nH]c(-c3cncc(C(=O)NCC(C)(C)N)n3)cc2c1 [Example 26, N-(2-amino-2-methylpropyl)-6-(5-methyl-1H-indol-2-yl)pyrazine-2-carboxamide] | 10 to 100 |
| Cc1c(-c2cncc(C(=O)NC34CC(N)(C3)C4)n2)[nH]c2ccc(OC(F)(F)F)cc12 [Example 64, N-(3-aminobicyclo[1.1.1]pentan-1-yl)-6-(3-methyl-5-(trifluoromethoxy)-1H-indol-2-yl)pyrazine-2-carboxamide] | 10 to 100 |
| Cc1c(-c2cncc(C(=O)NCC(C)(C)N)n2)[nH]c2c1C(=O)CC(C)(C)C2 [Example 56, N-(2-amino-2-methylpropyl)-6-(3,6,6-trimethyl-4-oxo-4,5,6,7-tetrahydro-1H-indol-2-yl)pyrazine-2-carboxamide] | > 100 |
| CCOC(=O)c1cc2[nH]c(-c3cncc(C(=O)NCC(C)(C)N)n3)c(C)c2s1 [Example 72, Ethyl 5-(6-((2-amino-2-methylpropyl)carbamoyl)pyrazin-2-yl)-6-methyl-4H-thieno[3,2-b]pyrrole-2-carboxylate] | < 10 |
| Cc1c(-c2cncc(C(=O)NC3CNC3)n2)[nH]c2ccccc12 [Example 91, N-(azetidin-3-yl)-6-(3-methyl-1H-indol-2-yl)pyrazine-2-carboxamide] | > 100 |
| Cc1c(-c2cncc(C(=O)N(C)CC(C)(C)N)n2)[nH]c2ccccc12 [Example 66, N-(2-amino-2-methylpropyl)-N-methyl-6-(3-methyl-1H-indol-2-yl)pyrazine-2-carboxamide] | > 100 |
| COc1cccc2cc(-c3cncc(C(=O)NCC(C)(C)N)n3)[nH]c12 [Example 44, N-(2-amino-2-methylpropyl)-6-(7-methoxy-1H-indol-2-yl)pyrazine-2-carboxamide] | > 100 |
| CC(C)(N)CNC(=O)c1cncc(-c2cc3ccc(Cl)c(F)c3[nH]2)n1 [Example 11, N-(2-amino-2-methylpropyl)-6-(6-chloro-7-fluoro-1H-indol-2-yl)pyrazine-2-carboxamide] | 10 to 100 |
| Cc1c(-c2cncc(C(=O)NCC(C)(C)C)n2)[nH]c2ccccc12 [Example 68, 6-(3-methyl-1H-indol-2-yl)-N-neopentylpyrazine-2-carboxamide] | > 100 |
| Cc1c(-c2cncc(C(=O)NC3CCNCC3)n2)[nH]c2ccccc12 [Example 93, 6-(3-methyl-1H-indol-2-yl)-N-(piperidin-4-yl)pyrazine-2-carboxamide] | > 100 |
| Cc1c(-c2cncc(C(=O)NCC(C)(C)N)n2)[nH]c2cc(OC(F)(F)F)ccc12 [Example 8, N-(2-amino-2-methylpropyl)-6-(3-methyl-6-(trifluoromethoxy)-1H-indol-2-yl)pyrazine-2-carboxamide] | < 10 |
| Cc1c(-c2cncc(C(=O)NCC(C)(C)N)n2)[nH]c2cc(OC(F)F)ccc12 [Example 69, N-(2-Amino-2-methylpropyl)-6-(6-(difluoromethoxy)-3-methyl-1H-indol-2-yl)pyrazine-2-carboxamide] | 10 to 100 |
| Cc1c(-c2cncc(C(=O)NCC(C)(C)N)n2)[nH]c2c(F)c(Cl)ccc12 [Example 4, N-(2-amino-2-methylpropyl)-6-(6-chloro-7-fluoro-3-methyl-1H-indol-2-yl)pyrazine-2-carboxamide] | < 10 |
| Cc1c(-c2cncc(C(=O)NC(C)(C)CN)n2)[nH]c2ccccc12 [Example 88, N-(1-amino-2-methylpropan-2-yl)-6-(3-methyl-1H-indol-2-yl)pyrazine-2-carboxamide] | 10 to 100 |
| COc1cc2[nH]c(-c3cncc(C(=O)NCC(C)(C)N)n3)cc2cc1F [Example 36, N-(2-amino-2-methylpropyl)-6-(5-fluoro-6-methoxy-1H-indol-2-yl)pyrazine-2-carboxamide] | > 100 |
| Cc1c(-c2cncc(C(=O)NCC(C)(C)N)n2)[nH]c2c(F)cc(Cl)cc12 [Example 6, N-(2-amino-2-methylpropyl)-6-(5-chloro-7-fluoro-3-methyl-1H-indol-2-yl)pyrazine-2-carboxamide] | < 10 |
